Data reported in publication PMC8776995 (Frontiers in Chemistry, 2022).
Where “and” joins values, the source holds several entries; their conditions need not be identical. Identical values can stand only once.

Tests used:
H460 cells [1] = assay: Annexin V/PI flow cytometry for cell apoptosis, H460; assay type: cell-based, human; conditions: for Percentage of apoptosis, Average: average of three runs; for Q2+Q3 / Lymphocytes/Q2: FITC-A+ , PI-A+ Freq. of Parent / Lymphocytes/Q3: FITC-A+ , PI-A- Freq. of Parent / Percentage of apoptosis: single runs; for Q2+Q3: given as fraction; for Lymphocytes/Q2: FITC-A+ , PI-A+ Freq. of Parent / Lymphocytes/Q3: FITC-A+ , PI-A- Freq. of Parent / Percentage of apoptosis: time as in file name (24h, 48h or not given)
Protocol: To establish whether the antiproliferative efficacy is associated with apoptosis, PC-9 and H460 cells were treated with compound e4 or e12 of various concentrations (4, 8 and 12 μM) for 48 h, and then assessed with flow cytometry.
Cell-apoptosis analysis was carried out by flow cytometry using the Annexin V/PI apoptosis kit according to the manufacturer’s manual. Briefly, PC-9 or H460 (3 × 10^4–5 × 10^4/well) cells were seeded in 12-well plates for 24 h, and then treated with 0.1% DMSO (as control) or various concentrations of compound e4 or e12 for 48 h, respectively. Cells were harvested, washed with PBS, and then incubated with 100ul of 1X Annexin V binding buffer containing 1 μl PI and 1 μl FITC Annexin V for 15 min at RT in the dark. 200 µl of 1X binding buffer were added to each tube for flow cytometry analysis (BD LSRFortessa™ Flow Cytometer). The percentages of apoptotic cells were analyzed using FlowJo soft.

H460 cells [2] = assay: Flow cytometry detection for cell cycle, H460; assay type: cell-based, human; conditions: for G0/G1 / G2/M / S: single experiments (20200711, 20200810, 20200812)
Protocol: To investigate the effects of compounds e4 and e12 on various phases of the cell cycle, PC-9 cells were treated with compound e4 or e12 of various concentrations for 24 h, and H460 cells were treated with compound e4 or e12 of various concentrations for 12 h.
PC-9 or H460 (2 × 10^5–3 × 10^5/well) cells were seeded in six-well plates for 24 h, and then treated with 0.1% DMSO (as control), various concentrations of either compound e4 or e12 for 24 h (PC-9) or 12 h (H460), respectively. The treated cells were harvested, washed with PBS, and then stained using the cell-cycle staining kit according to the manufacturer’s manual. The distribution of cell-cycle phases with different DNA contents was determined by flow cytometry (BD LSRFortessa™ Flow Cytometer) and analyzed using ModFit LT software.

H460 cells [3] = assay: CCK-8 antiproliferation assay, H460; conditions: given as fraction, Repeat 1-3; for Inhibitory efficacy: H460 cells
Protocol: The compounds were dissolved in DMSO to make a 20 μM stock solution and diluted to the concentration of working solutions with complete growth medium before administration.
Cells were seeded in 96-well plates: 3,000–5,000 cells/well in 100 ul. One day after seeding, the test compounds at concentration between 1.0 and 16.0 μ M or 0.1% DMSO (as control) were added to cells in triplicate. 48 h later, CCK-8 was added and incubated the plate for 1–4 h in the incubator. The absorbance at 450 nm were measured using a microplate reader (Bio-Tek).

[4] = system: CCND1, CCNA2, CCNB1, CDK2, CDK6 RNA in PC-9 cells; assay: qPCR assay for cell cycle-related gene analysis; assay type: cell-based, human; conditions: for CCNB relative mRNA expression (2^-ddCt vs NC, normalised to beta-Actin) / CCND1 relative mRNA expression (2^-ddCt vs NC, normalised to beta-Actin) / CDK6 relative mRNA expression (2^-ddCt vs NC, normalised to beta-Actin): qPCR SYBR_GREEN, NC = 1; for RQ / RQ, CCNA / RQ, CCNB / RQ, CCND1 / RQ, CDK6 / RQ (CDK2): endogenous control b-Actin, reference sample NC; for 2^ΔΔCт CCNA / 2^ΔΔCт CCNB / 2^ΔΔCт CCND1 / 2^ΔΔCт CDK2 / 2^ΔΔCт CDK6: Repeat 1-3, relative to NC = 1; for CDK6 relative mRNA expression (fold of NC): qPCR, SYBR Green, normalised to beta-Actin, relative to NC = 1
Description: To better understand the mechanisms underlying cell cycle arrest induced by e4 and e12 in NSCLC cells, we assessed the expression levels of a few genes involved in cell cycle regulation, including cyclin D1 (CCND1), cyclin A2 (CCNA2), cyclin B1 (CCNB1), cyclin-dependent kinase 2 (CDK2), and cyclin-dependent kinase 6 (CDK6) in PC-9 by qPCR. […] CCNA2 is known to bind and activate CDK2 and thus promotes the transition through G1/S and G2/M. CCNB1 and CCND1 are essential to mitosis and G1/S transition respectively. While G2/M arrest weas not detected, the changes in these gene expression profiles interpret the G1/S arrests in PC-9 cells treated with e4 and e12. PC-9 cells exposed to the compounds for various periods should be examined further.
Total RNA of cells was extracted and cDNA was synthesized. The primers for the target products were designed as in Table 3.

[5] = PC-9, 16 h, compared with DMSO control

## COCCOc1cc2ncnc(Nc3cccc(-c4cn(-c5ccc(C)cc5)nn4)c3)c2cc1OCCOC [e12, [6,7-Bis-(2-methoxy-ethoxy)-quinazolin-4-yl]-[3-(1-p-tolyl-1H-[1,2,3]triazol-4-yl)-phenyl]-amine]
H460 cells [1]; H460, 4uM
  Percentage of apoptosis, Average: 14.68%
  Q2+Q3: 0.149
  Lymphocytes/Q2: FITC-A+ , PI-A+ Freq. of Parent: 8.07% and 10.30% and 7.57%
  Lymphocytes/Q3: FITC-A+ , PI-A- Freq. of Parent: 6.83% and 3.75% and 7.52%
  Percentage of apoptosis: 14.9% and 14.05% and 15.09%
H460 cells [1]; H460, 8uM
  Percentage of apoptosis, Average: 16.0567%
  Q2+Q3: 0.1436
  Lymphocytes/Q2: FITC-A+ , PI-A+ Freq. of Parent: 7.09% and 10.30% and 10.90%
  Lymphocytes/Q3: FITC-A+ , PI-A- Freq. of Parent: 7.27% and 6.59% and 6.02%
  Percentage of apoptosis: 14.36% and 16.89% and 16.92%
H460 cells [1]; H460, 12uM
  Percentage of apoptosis, Average: 28.7833%
  Q2+Q3: 0.213
  Lymphocytes/Q3: FITC-A+ , PI-A- Freq. of Parent: 10.9% and 9.22% and 9.03%
  Percentage of apoptosis: 21.3% and 31.62% and 33.43%
H460 cells [1]; H460, 4, 8 and 12 μM, 48 h
  cell apoptosis (flow cytometry): significant cell apoptosis
H460 cells [2]; H460, 4uM
  G0/G1: 46.77% and 59.95%
  G2/M: 19.08% and 18.32% and 13.33%
  S: 34.15% and 35.36% and 26.72%
H460 cells [2]; H460, 8uM
  G0/G1: 49.59% and 63.38%
  G2/M: 16.88% and 18.32% and 11.47%
  S: 33.54% and 35.36% and 25.15%
H460 cells [2]; H460, 12uM
  G0/G1: 47.32% and 46.51% and 62.09%
  S: 32.63% and 19.41% and 25.2%
H460 cells [2]; H460, various concentrations, 12 h
  percentage of cells in the G0/G1 phase: induced higher percentages
H460 cells [3]; 1uM
  Inhibitory efficacy: 0.2117 and 0.1598
H460 cells [3]; 2uM
  Inhibitory efficacy: 0.3397 and 0.3411
H460 cells [3]; 4uM
  Inhibitory efficacy: 0.5452 and 0.4421
H460 cells [3]; 8uM
  Inhibitory efficacy: 0.667 and 0.5743
H460 cells [3]; 16uM
  Inhibitory efficacy: 0.9091 and 0.887
H460 cells [3]; Homo sapiens, NCI-H460, read-out: Inhibitory efficacy, H460 cells, 1uM
  inhibition at 1 µM: 16.7%
H460 cells [3]; Homo sapiens, NCI-H460, read-out: Inhibitory efficacy, H460 cells, 2uM
  inhibition at 2 µM: 36.8%
H460 cells [3]; Homo sapiens, NCI-H460, read-out: Inhibitory efficacy, H460 cells, 4uM
  inhibition at 4 µM: 58.9%
H460 cells [3]; Homo sapiens, NCI-H460, read-out: Inhibitory efficacy, H460 cells, 8uM
  inhibition at 8 µM: 65.1%
H460 cells [3]; Homo sapiens, NCI-H460, read-out: Inhibitory efficacy, H460 cells, 16uM
  inhibition at 16 µM: 88.9%
[4]; 4uM
  CCNB relative mRNA expression (2^-ddCt vs NC, normalised to beta-Actin): 0.9828
  CCND1 relative mRNA expression (2^-ddCt vs NC, normalised to beta-Actin): 0.7886
  CDK6 relative mRNA expression (2^-ddCt vs NC, normalised to beta-Actin): 0.5928
  2^ΔΔCт CCNA: 0.5435 and 0.6447 and 0.8394
  2^ΔΔCт CCNB: 0.9828 and 0.8732 and 1.03
  CDK6 relative mRNA expression (fold of NC): 0.9896
[4]; 8uM
  CCNB relative mRNA expression (2^-ddCt vs NC, normalised to beta-Actin): 0.8452
  CCND1 relative mRNA expression (2^-ddCt vs NC, normalised to beta-Actin): 0.7649
  CDK6 relative mRNA expression (2^-ddCt vs NC, normalised to beta-Actin): 0.8101
  2^ΔΔCт CCNA: 0.582 and 0.5272 and 0.6204
  2^ΔΔCт CCNB: 0.8452 and 0.8244 and 0.8431
  CDK6 relative mRNA expression (fold of NC): 0.9153
[4]; 12uM
  CCNB relative mRNA expression (2^-ddCt vs NC, normalised to beta-Actin): 0.7825
  CCND1 relative mRNA expression (2^-ddCt vs NC, normalised to beta-Actin): 0.6173
  CDK6 relative mRNA expression (2^-ddCt vs NC, normalised to beta-Actin): 0.676
  2^ΔΔCт CCNA: 0.5914 and 0.5472 and 0.7362
  2^ΔΔCт CCNB: 0.7825 and 0.7721 and 1.0421
  CDK6 relative mRNA expression (fold of NC): 0.9852
[4]; CCNA mRNA, 4uM
  RQ: 0.8394
[4]; CCNA mRNA, 8uM
  RQ: 0.6204
[4]; CCNA mRNA, 12uM
  RQ: 0.7362
[4]; CCNB mRNA, 4uM
  RQ: 1.03
[4]; CCNB mRNA, 8uM
  RQ: 0.8431
[4]; CCNB mRNA, 12uM
  RQ: 1.0421
[4]; CCND1, 4uM
  2^ΔΔCт CCND1: 0.7886 and 0.963 and 1.159
[4]; CCND1, 8uM
  2^ΔΔCт CCND1: 0.7649 and 0.9528 and 0.8372
[4]; CCND1, 12uM
  2^ΔΔCт CCND1: 0.6173 and 0.9545 and 0.694
[4]; CCND1 mRNA, 4uM
  RQ: 1.159
[4]; CCND1 mRNA, 8uM
  RQ: 0.8372
[4]; CCND1 mRNA, 12uM
  RQ: 0.694
[4]; CDK2, 4uM
  2^ΔΔCт CDK2: 0.9262 and 1.002 and 1.127
[4]; CDK2, 8uM
  2^ΔΔCт CDK2: 0.848 and 1.034 and 0.9665
[4]; CDK2, 12uM
  2^ΔΔCт CDK2: 0.7751 and 1.0315 and 0.9502
[4]; CDK2 mRNA, 4uM
  RQ: 1.127
[4]; CDK2 mRNA, 8uM
  RQ: 0.9665
[4]; CDK2 mRNA, 12uM
  RQ: 0.9502
[4]; CDK6, 4uM
  2^ΔΔCт CDK6: 0.5928 and 0.8604 and 0.9896
[4]; CDK6, 8uM
  2^ΔΔCт CDK6: 0.8101 and 1.1509 and 0.9153
[4]; CDK6, 8uM, normalized to WT (NC), run 20201020-2
  2^ΔΔCт: 0.9153
[4]; CDK6, 12uM
  2^ΔΔCт CDK6: 0.676 and 1.27 and 0.9852
[4]; CDK6 mRNA, 4uM
  RQ: 0.9896
[4]; CDK6 mRNA, 8uM
  RQ: 0.9153
[4]; CDK6 mRNA, 12uM
  RQ: 0.9852
[4]; [5]
  RNA level of CCNA2: significantly decreased
  RNA level of CCNB1: significantly decreased
[4]; qPCR SYBR Green, CCNA mRNA, 4uM
  RQ, CCNA: 0.6447
[4]; qPCR SYBR Green, CCNA mRNA, 8uM
  RQ, CCNA: 0.5272
[4]; qPCR SYBR Green, CCNA mRNA, 12uM
  RQ, CCNA: 0.5472
[4]; qPCR SYBR Green, CCNB mRNA, 4uM
  RQ, CCNB: 1.09
[4]; qPCR SYBR Green, CCNB mRNA, 8uM
  RQ, CCNB: 1.029
[4]; qPCR SYBR Green, CCNB mRNA, 12uM
  RQ, CCNB: 0.964
[4]; qPCR SYBR Green, CCND1 mRNA, 4uM
  RQ, CCND1: 0.963
[4]; qPCR SYBR Green, CCND1 mRNA, 8uM
  RQ, CCND1: 0.9528
[4]; qPCR SYBR Green, CCND1 mRNA, 12uM
  RQ, CCND1: 0.9545
[4]; qPCR SYBR Green, CDK6 mRNA, 4uM
  RQ, CDK6: 0.8604
[4]; qPCR SYBR Green, CDK6 mRNA, 8uM
  RQ, CDK6: 1.1509
[4]; qPCR SYBR Green, CDK6 mRNA, 12uM
  RQ, CDK6: 1.27
[4]; target CCNA, 4uM
  RQ, CCNA: 0.5435
[4]; target CCNA, 8uM
  RQ, CCNA: 0.582
[4]; target CCNA, 12uM
  RQ, CCNA: 0.5914
[4]; target CCNB, 4uM
  RQ, CCNB: 0.9828
[4]; target CCNB, 8uM
  RQ, CCNB: 0.8452
[4]; target CCNB, 12uM
  RQ, CCNB: 0.7825
[4]; target CCND1, 4uM
  RQ, CCND1: 0.7886
[4]; target CCND1, 8uM
  RQ, CCND1: 0.7649
[4]; target CCND1, 12uM
  RQ, CCND1: 0.6173
[4]; target CDK2, 4uM
  RQ (CDK2): 0.9262
[4]; target CDK2, 8uM
  RQ (CDK2): 0.848
[4]; target CDK2, 12uM
  RQ (CDK2): 0.7751
[4]; target CDK6, 4uM
  RQ, CDK6: 0.5928
[4]; target CDK6, 8uM
  RQ, CDK6: 0.8101
[4]; target CDK6, 12uM
  RQ, CDK6: 0.676
